Data as given in EP1311531B1, “STEROID DERIVED ANTIBIOTICS” (Brigham Young University, priority 2000, dated 2002).
≈ marks a conversion by molar mass, not a printed value. Read-outs that look alike come from different tables or passages of the source.

How the values were obtained:
[1] = Minimum hemolytic concentration (MHC); format: cell-based; settings: Table 16
Method: Minimum inhibition concentrations (MIC) and minimum hemolytic concentrations (MHC) were measured as described in Li et al., Antimicrob. Agents. Chemother., 1999, 43, 1347. […]

[2] = tested on: Escherichia coli ATCC 25922; assay: MIC and MBC measurement; format: cell-based
From the text: (§1) General: Microorganisms. Reference strains were purchased from the American Type Culture Collection (Rockville, MD) or Bactrol disks from Difeo Laboratories (Detroit, MI). The following specific ATCC strains were used: 10798 Escherichia coli, 25922 Escherichia coli, 13883 Klebsiella pneumoniae, 27853 Pseudomonas aeruginosa, 14028 Salmonella typhimurium, 29212 Enterococcus faecalis, 25923 Staphylococcus aureus, 19615 Streptococcus pyogenes, and 90028 Candida albicans. Bacterial strains were maintained on Mueller-Hinton agar plates, and Candida albicans was maintained on Sabouraud Dextrose agar plates.
(§2) Tryptic soy broth (TSB) was made by dissolving 27.5 grams of tryptic soy broth without dextrose (DIFCO Laboratories) in 1 liter of deionized water and sterilizing at 121 °C for 15 minutes. Solid agar (TSA) plates were made by dissolving 6.4 grams of tryptic soy broth and 12 grams of agar (purified grade, Fischer Scientific) in 800 mL of deionized water and sterilizing at 121 °C for 20 minutes. Aliquots (20 mL) of the homogeneous solution were then poured in sterile plastic petri dishes (100 x 15 mm, Fisher Scientific). Solutions of compounds were made by dissolving the HCl salt of the respective compound into an appropriate amount of deionized and sterilized water followed by microfiltration.
(§3) Aliquots of 1 mL of the suspension were added to test tubes containing 1 mL TSB and incrementally varied concentrations of cholic acid derivatives and/or erythromycin or novobiocin. In the sensitization experiments, erythromycin or novobiocin were added 15 minutes later than the cholic acid derivatives. The samples were subjected to stationary incubation at 37°C for 24 hours. Sample turbidity was determined by measuring absorption at 760 nm (HP 8453 UV-Visible Chemstation, Hewlett Packard). Additionally, an alliquot from each of the samples showing no measurable turbidity was subcultured on TSA plates (alliquots were diluted to provide fewer than 300 CFU). Colonies that grew on the subculture after overnight incubation were counted and the number of CFU/mL in the samples were calculated. The calculated values were compared to the number of CFU/mL in the original inoculum. […]

[3] = tested on: Staphylococcus aureus ATCC 25923; assay: MIC and MBC measurement; format: cell-based; settings: Table 16 (MIC^a), S. aureus (ATTC 25923)
From the text: as §1, §2, §3

[4] = tested on: Escherichia coli ATCC 25922; assay: Sensitization to erythromycin, novobiocin or rifampicin (permeabilization, FIC); settings: for c: concentration of the compounds required to lower the MIC of erythromycin from 30 to 1 µg/mL: Table 16, with E. coli
Method: FICs can be performed by checkerboard titrations of compounds in one dimension of a microtiter plate, and of antibiotics in the other dimension, for example. The FIC is calculated by looking at the impact of one antibiotic on the MIC of the other and vice versa. […] As used herein, FIC can be determined as follows: FIC = (MIC(compound in combination))/(MIC(compound alone)) + (MIC(antibiotic in combination))/(MIC(antibiotic alone)) [formula]

Gram-negative bacteria = assay: MIC and permeabilization measurements, strain not stated (Table 14, Fig. 5); settings: in words
[5] = Stability (half-lives) in phosphate buffer, decomposition observed via HPLC; format: physicochemical; settings: 50 mM phosphate buffer, room temperature; for stabilities (half-lives) pH 2.0: pH 2.0, approximately 10 mM; for stabilities (half-lives) pH 7.0: pH 7.0, approximately 10 mM; for stabilities (half-lives) pH 12.0: pH 12.0, approximately 10 mM
Method: Compounds 352 - 354 were dissolved in 50 mM phosphate buffered water (pH 2.0, 7.0 or 12.0) at approximately 10 mM concentrations. […] These compounds were used since they contain a chromophore that facilitated monitoring of decomposition by absorption methods common in the HPLC apparatus used.

[6] = tested on: Pseudomonas aeruginosa ATCC 27853; assay: MIC and MBC measurement; format: cell-based; settings: ATCC27853, Table 6, P. aureginosa (ATCC 27853)
Method: (§4) General: Microorganisms. Reference strains were purchased from the American Type Culture Collection (Rockville, MD) or Bactrol disks from Difeo Laboratories (Detroit, MI). […] Bacterial strains were maintained on Mueller-Hinton agar plates, and Candida albicans was maintained on Sabouraud Dextrose agar plates.
(§5) Aliquots (20 mL) of the homogeneous solution were then poured in sterile plastic petri dishes (100 x 15 mm, Fisher Scientific). Solutions of compounds were made by dissolving the HCl salt of the respective compound into an appropriate amount of deionized and sterilized water followed by microfiltration.
(§6) Aliquots of 1 mL of the suspension were added to test tubes containing 1 mL TSB and incrementally varied concentrations of cholic acid derivatives and/or erythromycin or novobiocin. […] Additionally, an alliquot from each of the samples showing no measurable turbidity was subcultured on TSA plates (alliquots were diluted to provide fewer than 300 CFU). Colonies that grew on the subculture after overnight incubation were counted and the number of CFU/mL in the samples were calculated. The calculated values were compared to the number of CFU/mL in the original inoculum.

[7] = tested on: Pseudomonas aeruginosa ATCC 27853; assay: Sensitization to erythromycin, novobiocin or rifampicin (permeabilization, FIC); format: cell-based; settings: P. aureginosa (ATCC 27853)
Method: (§7) FICs can be performed by checkerboard titrations of compounds in one dimension of a microtiter plate, and of antibiotics in the other dimension, for example. The FIC is calculated by looking at the impact of one antibiotic on the MIC of the other and vice versa. […] Preferably, an FIC of less than 0.5 is obtained for synergism. As used herein, FIC can be determined as follows: FIC = (MIC(compound in combination))/(MIC(compound alone)) + (MIC(antibiotic in combination))/(MIC(antibiotic alone)) [formula]
(§8) Aliquots of 1 mL of the suspension were added to test tubes containing 1 mL TSB and incrementally varied concentrations of cholic acid derivatives and/or erythromycin or novobiocin. In the sensitization experiments, erythromycin or novobiocin were added 15 minutes later than the cholic acid derivatives. The samples were subjected to stationary incubation at 37°C for 24 hours. Sample turbidity was determined by measuring absorption at 760 nm (HP 8453 UV-Visible Chemstation, Hewlett Packard). Additionally, an alliquot from each of the samples showing no measurable turbidity was subcultured on TSA plates (alliquots were diluted to provide fewer than 300 CFU). Colonies that grew on the subculture after overnight incubation were counted and the number of CFU/mL in the samples were calculated. The calculated values were compared to the number of CFU/mL in the original inoculum.
Concentrations of 0.5, 1.0 or 3.0 µg/mL of these antibiotics were used, and the concentrations of the cholic acid derivatives required to inhibit bacterial growth of Gram-negative strains were determined.

E. coli (ATCC 10798) [8] = assay: MIC and MBC measurement; format: cell-based, Escherichia coli; settings: Escherichia coli, ATCC10798, Table 1, E. coli (ATCC 10798)
Method: as §4, §5, §6

E. coli (ATCC 10798) [9] = assay: Sensitization to erythromycin or novobiocin (outer membrane permeabilization, FIC); format: cell-based, Escherichia coli; settings: E. coli (ATCC 10798); for MBC: Escherichia coli
Method: as §7, §8
They were also tested for the ability to permeabilize the outer membrane of Gram-negative bacteria, causing sensitization to hydrophobic antibiotics that cannot cross the outer membrane. The permeabilization of the outer membrane was measured using erythromycin and novobiocin.

[10] = Escherichia coli, ATCC25922, Table 16 (MIC^b), E. coli (ATTC 25922), read-out: MIC
[11] = Staphylococcus aureus, ATCC25923, read-out: MIC

## C[C@H](CCC(=O)OCC[N+](C)(C)C)[C@H]1CC[C@H]2[C@@H]3[C@H](OC(=O)CCCN)C[C@@H]4C[C@H](OC(=O)CCCN)CC[C@]4(C)[C@H]3C[C@H](OC(=O)CCCN)[C@]12C [Compound 326]
[1]
  MHC: >200 µg/mL
[2]; [10]
  MIC: 23 µg/mL
[3]; [11]
  MIC: 14 µg/mL
[4]
  c: concentration of the compounds required to lower the MIC of erythromycin from 30 to 1 µg/mL: 2.0 µg/mL

## C[C@H](CCC(=O)OCC[N+](C)(C)C)[C@H]1CC[C@H]2[C@@H]3[C@H](OC(=O)CN)C[C@@H]4C[C@H](OC(=O)CN)CC[C@]4(C)[C@H]3C[C@H](OC(=O)CN)[C@]12C [Compound 324]
[1]
  MHC: >200 µg/mL
[2]; [10]
  MIC: 60 µg/mL
[3]; [11]
  MIC: 15 µg/mL
[4]
  c: concentration of the compounds required to lower the MIC of erythromycin from 30 to 1 µg/mL: 10 µg/mL

## C[C@H](CCCO)[C@H]1CC[C@H]2[C@@H]3[C@H](NC(=O)CCCCCN)C[C@@H]4C[C@H](NC(=O)CCCCCN)CC[C@]4(C)[C@H]3C[C@H](NC(=O)CCCCCN)[C@]12C [Compound 211]
Gram-negative bacteria
  activity as a permeabilizer: less active than 209c as a permeabilizer

## C[C@H](CCCO)[C@H]1CC[C@H]2[C@@H]3[C@H](N)C[C@@H]4C[C@H](N)CC[C@]4(C)[C@H]3C[C@H](N)[C@]12C [Compound 206]
Gram-negative bacteria
  activity as a permeabilizer: ineffective as a permeabilizer

## C[C@H](CCC(=O)OCC[N+](C)(C)C)[C@H]1CC[C@H]2[C@@H]3[C@H](OC(=O)CCN)C[C@@H]4C[C@H](OC(=O)CCN)CC[C@]4(C)[C@H]3C[C@H](OC(=O)CCN)[C@]12C [Compound 325]
[1]
  MHC: >200 µg/mL
[2]; [10]
  MIC: 30 µg/mL
[3]; [11]
  MIC: 11 µg/mL
[4]
  c: concentration of the compounds required to lower the MIC of erythromycin from 30 to 1 µg/mL: 2.0 µg/mL

## CCCCCCCCOC(=O)CC[C@@H](C)[C@H]1CC[C@H]2[C@@H]3[C@H](OC(=O)CCCN)C[C@@H]4C[C@H](OC(=O)CCCN)CC[C@]4(C)[C@H]3C[C@H](OC(=O)CCCN)[C@]12C [Compound 343]
[1]
  MHC: <10 µg/mL
[2]; [10]
  MIC: 3.5 µg/mL (≈ 4.51 µM)
[3]; [11]
  MIC: 1.2 µg/mL (≈ 1.55 µM)
[4]
  c: concentration of the compounds required to lower the MIC of erythromycin from 30 to 1 µg/mL: 3.5 µg/mL

## C[C@H](CCCN(C)Cc1ccccc1)[C@H]1CC[C@H]2[C@@H]3[C@H](OC(=O)CN)C[C@@H]4C[C@H](OC(=O)CN)CC[C@]4(C)[C@H]3C[C@H](OC(=O)CN)[C@]12C [Compound 352]
[5]
  stabilities (half-lives) pH 2.0: >37 days
  stabilities (half-lives) pH 7.0: 28 days
  stabilities (half-lives) pH 12.0: <30 minutes

## C[C@H](CCCN)[C@H]1CC[C@H]2[C@@H]3[C@H](OCCCN)C[C@@H]4C[C@H](OCCCN)CC[C@]4(C)[C@H]3C[C@H](OCCCN)[C@]12C [Compound 135]
Gram-negative bacteria; text on Fig. 5
  MBC: relatively high
  MIC: relatively high

## C[C@H](CCCN(C)Cc1ccccc1)[C@H]1CC[C@H]2[C@@H]3[C@H](OC(=O)CCCN)C[C@@H]4C[C@H](OC(=O)CCCN)CC[C@]4(C)[C@H]3C[C@H](OC(=O)CCCN)[C@]12C [Compound 354]
[5]
  stabilities (half-lives) pH 2.0: 33 days
  stabilities (half-lives) pH 7.0: 12 days
  stabilities (half-lives) pH 12.0: <30 minutes

## C[C@H](CCCN(C)Cc1ccccc1)[C@H]1CC[C@H]2[C@@H]3[C@H](OCCNC(=N)N)C[C@@H]4C[C@H](OCCNC(=N)N)CC[C@]4(C)[C@H]3C[C@H](OCCNC(=N)N)[C@]12C [Compound 4]
[6]
  MBC: 40 µg/mL (≈ 53.1 µM)
  MIC: 15 µg/mL (≈ 19.9 µM)
[2]; Escherichia coli, ATCC25922, Table 4, E. coli (ATCC 25922)
  MBC: 9 µg/mL (≈ 12 µM)
[2]; Escherichia coli, ATCC25922, Table 4, E. coli (ATCC 25922), read-out: MIC
  MIC: 6 µg/mL (≈ 7.97 µM)
[7]; Pseudomonas aeruginosa, ATCC27853, Table 7, with erythromycin
  MBC: 40 µg/mL
[7]; Table 7, with erythromycin
  concentration required to lower the MIC of erythromycin from 240 µg/mL to 5 µg/mL: 5 µg/mL
[7]; Table 8, with novobiocin
  concentration required to lower the MIC of novobiocin from >500 µg/mL to 1 µg/mL: 6 µg/mL
[4]; Escherichia coli, ATCC25922
  MBC: 5 µg/mL
[4]; Table 5, E. coli (ATCC 25922), with erythromycin
  concentration required to lower the MIC of erythromycin from 60 µg/mL to 1 µg/mL: 1 µg/mL
E. coli (ATCC 10798) [8]; read-out: MBC
  MBC: 10 µg/mL (≈ 13.3 µM)
E. coli (ATCC 10798) [8]; read-out: MIC
  MIC: 5 µg/mL (≈ 6.64 µM)
E. coli (ATCC 10798) [9]; ATCC10798, Table 2, with erythromycin
  MBC: 10 µg/mL
E. coli (ATCC 10798) [9]; ATCC10798, Table 3, with novobiocin
  MBC: 10 µg/mL
E. coli (ATCC 10798) [9]; Table 2, with erythromycin
  concentration required to lower the MIC of erythromycin from 70 µg/mL to 1 µg/mL: 1.5 µg/mL

## C[C@H](CCCN(C)Cc1ccccc1)[C@H]1CC[C@H]2[C@@H]3[C@H](OC(=O)CCN)C[C@@H]4C[C@H](OC(=O)CCN)CC[C@]4(C)[C@H]3C[C@H](OC(=O)CCN)[C@]12C [Compound 353]
[5]
  stabilities (half-lives) pH 2.0: >37 days
  stabilities (half-lives) pH 7.0: 37 days
  stabilities (half-lives) pH 12.0: <30 minutes

## CCCCCCCCOC(=O)CC[C@@H](C)[C@H]1CC[C@H]2[C@@H]3[C@H](OC(=O)CN)C[C@@H]4C[C@H](OC(=O)CN)CC[C@]4(C)[C@H]3C[C@H](OC(=O)CN)[C@]12C [Compound 341]
[1]
  MHC: 4.0 µg/mL
[2]; [10]
  MIC: 1 µg/mL (≈ 1.45 µM)
[3]; [11]
  MIC: 1.8 µg/mL (≈ 2.6 µM)
[4]
  c: concentration of the compounds required to lower the MIC of erythromycin from 30 to 1 µg/mL: 0.7 µg/mL

## C[C@H](CCC(=O)O)[C@H]1CC[C@H]2[C@@H]3[C@H](OC(=O)CN)C[C@@H]4C[C@H](OC(=O)CN)CC[C@]4(C)[C@H]3C[C@H](OC(=O)CN)[C@]12C [Compound 327]
[1]
  MHC: >100 µg/mL
[2]; Table 16, second MIC column (MIC^b), E. coli (ATTC 25922)
  MIC: >100 µg/mL
[3]
  MIC: >100 µg/mL
[4]
  c: concentration of the compounds required to lower the MIC of erythromycin from 30 to 1 µg/mL: >100 µg/mL
